In patent US6890950B2, “Lapachone delivery systems, compositions and uses related thereto” (priority 2002, dated 2005):
Where “and” joins values, the source holds several entries; their conditions need not be identical. Equal values may be shown once. Values belong to the molecule of their own block, whether it stands above or below them.

Assays:
[1] = system: LNCaP; experiment: TUNEL apoptosis assay; type: cell-based, human; conditions: 10 μM, 4h
[2] = system: DU-145; experiment: TUNEL apoptosis assay; type: cell-based, human; conditions: 10 μM, 4h, TUNEL 48h
[3] = system: PC-3; experiment: TUNEL apoptosis assay; type: cell-based, human; conditions: 10 μM, 4h, TUNEL 48h
[4] = system: A549 NSCLC cells; experiment: survival and apoptosis (PARP cleavage) of NSCLC cells; type: cell-based, human; conditions: 50 μM, 4 h
From the text: NQO1-dependent apoptosis of A549 or CC-10 NSCLC cells by β-lap.

[5] = system: NQO1-containing LNCaP clones; experiment: colony forming ability assays; type: cell-based, human; conditions: 4-h pulses
Method: FIG. 14. […] Colony forming ability assays (CFAs) were performed three times, each in triplicate.
LNCaP cells were transfected with either pcDNA3 empty vector or pcDNA3 containing full-length NQO1 cDNA.

[6] = association constant (Kc) from phase solubility diagrams; type: physicochemical; conditions: for association constant Kc (phase solubility): inclusion complex with β-lap, PBS, 25° C., 1:1
Method: Solubility studies were performed by adding excess amount of β-lap to a series of PBS buffer that contain different concentrations of each CD molecule ranging from zero to its solubility limit (see Table 1 for the solubility limit of each CD molecule). A schematic diagram of the intermolecular interactions and their effect on solubility is provided as FIG. 1. The suspensions were stirred at 25° C. until dissolution equilibrium was reached. Then aliquots were withdrawn, filtered (Nylon syringe filter 0.2 μm pore size from Fisher Scientific (Pittsburg, Pa.)) and analyzed for β-lap concentrations by UV-V is spectrophotometry (λmax=257.2 nm, ε=109.6 ml/(mg·cm)). Phase solubility diagram for each CD was obtained by plotting the β-lap solubility at dissolution equilibrium as a function of the CD concentration. The association constant (Kc) [formula] for the complex formation was calculated based on Equation 1 assuming a 1:1 ratio of complex formation (T. Higuchi and K. A. Connors. Adv Anal Chem Instrum. 4:117-212 (1965)). ^1H NMR Study of CD.β-lap Inclusion Complexes

[7] = phase solubility studies of β-lap with cyclodextrins; type: physicochemical
Method: Solubility studies were performed by adding excess amount of β-lap to a series of PBS buffer that contain different concentrations of each CD molecule ranging from zero to its solubility limit (see Table 1 for the solubility limit of each CD molecule). A schematic diagram of the intermolecular interactions and their effect on solubility is provided as FIG. 1. The suspensions were stirred at 25° C. until dissolution equilibrium was reached. […] Phase solubility diagram for each CD was obtained by plotting the β-lap solubility at dissolution equilibrium as a function of the CD concentration.

Molecule: CC[C@@]1(O)C(=O)OCc2c1cc1n(c2=O)Cc2cc3ccccc3nc2-1 [Camptothecin, camptothecin]
Apoptosis (%) After Drug Treatment ([1]; LNCaP + DC (50 μM dicoumarol), TUNEL 48h): 33 ± 9%
Apoptosis (%) After Drug Treatment ([1]; LNCaP + DVED, TUNEL 48h): 10 ± 3%
Apoptosis (%) After Drug Treatment ([1]; LNCaP, TUNEL 48h post-treatment): 30 ± 5%
Apoptosis (%) After Drug Treatment ([2]; DU-145 + DC (50 μM dicoumarol)): 43 ± 12%
Apoptosis (%) After Drug Treatment ([2]; DU-145 + DVED): 10 ± 5%
Apoptosis (%) After Drug Treatment ([2]; DU-145): 30 ± 06%
Apoptosis (%) After Drug Treatment ([3]; PC-3 + DC (50 μM dicoumarol)): 22 ± 7%
Apoptosis (%) After Drug Treatment ([3]; PC-3 + DVED): 6 ± 5%
Apoptosis (%) After Drug Treatment ([3]; PC-3): 23 ± 3%

Molecule: O=c1oc2ccccc2c(O)c1Cc1c(O)c2ccccc2oc1=O [dicoumarol]
effect on cell growth (survival), alone [4]: no effect

Molecule: CC1=CC(=O)c2ccccc2C1=O [menadione]
sensitivity compared to NQO1-deficient LN-pcDNA3 vector alone cells [5]: resistant

Molecule: OC[C@H]1O[C@@H]2O[C@H]3[C@H](O)[C@@H](O)[C@@H](O[C@H]4[C@H](O)[C@@H](O)[C@@H](O[C@H]5[C@H](O)[C@@H](O)[C@@H](O[C@H]6[C@H](O)[C@@H](O)[C@@H](O[C@H]7[C@H](O)[C@@H](O)[C@@H](O[C@H]1[C@H](O)[C@H]2O)O[C@@H]7CO)O[C@@H]6CO)O[C@@H]5CO)O[C@@H]4CO)O[C@@H]3CO [α-CD]
association constant Kc (phase solubility) [6]: 20.0 ± 0.7 M⁻¹ and 20 M⁻¹

Kc increase over α-CD (factor) [6]: 8
association constant Kc (phase solubility) [6]: 160 ± 5 M⁻¹ and 160 M⁻¹
Molecule: OC[C@H]1O[C@@H]2O[C@H]3[C@H](O)[C@@H](O)[C@@H](O[C@H]4[C@H](O)[C@@H](O)[C@@H](O[C@H]5[C@H](O)[C@@H](O)[C@@H](O[C@H]6[C@H](O)[C@@H](O)[C@@H](O[C@H]7[C@H](O)[C@@H](O)[C@@H](O[C@H]8[C@H](O)[C@@H](O)[C@@H](O[C@H]9[C@H](O)[C@@H](O)[C@@H](O[C@H]1[C@H](O)[C@H]2O)O[C@@H]9CO)O[C@@H]8CO)O[C@@H]7CO)O[C@@H]6CO)O[C@@H]5CO)O[C@@H]4CO)O[C@@H]3CO [γ-CD]

solubility (limit) of HPβ-CD [7]: 360 mM
Molecule: hydroxypropyl β-cyclodextrin [HPβ-CD]
